Source: ChEMBL document CHEMBL3853343, “Discovery of novel 2',4'-dimethyl-[4,5'-bithiazol]-2-yl amino derivatives as orally bioavailable TRPV4 antagonists for the treatment of pain: Part 2” (Bioorg Med Chem Lett, 2016)

Assays:
[1] = tested on: Rattus norvegicus; experiment: Analgesic activity in rat assessed as reversal of complete Freund's adjuvant-induced mechanical hyperalgesia at 10 mg/kg, po after 1 hr relative to control; format: functional
[2] = Antagonist activity at guinea pig TRPV4 assessed as inhibition of 4alpha-PDD-induced activation; parameters: species or system Cavia porcellus
[3] = target: T1, Transient receptor potential cation channel subfamily V member 4 (Rattus norvegicus, UniProt Q9ERZ8); experiment: Antagonist activity at rat TRPV4 assessed as inhibition of 4alpha-PDD-induced activation
[4] = Stability in human liver microsomes assessed as parent compound remaining after 30 mins in presence or absence of NADPH; format: ADME, microsome; settings: read-out: Stability
[5] = Stability in rat liver microsomes assessed as parent compound remaining after 30 mins in presence or absence of NADPH; format: ADME, microsome; settings: read-out: Stability
[6] = Total clearance in guinea pig at 1 mg/kg, iv; format: ADME, organism-based, Cavia porcellus; settings: in vivo
[7] = Half life in guinea pig at 1 mg/kg, iv; format: ADME, organism-based, Cavia porcellus; settings: in vivo
[8] = Volume of distribution at steady state in guinea pig at 1 mg/kg, iv; format: ADME, organism-based, Cavia porcellus; settings: in vivo, read-out: Vdss
[9] = Cmax in guinea pig at 20 mg/kg, po measured 12 hrs post dose; format: ADME, organism-based, Cavia porcellus; parameters: dose 20 mg/kg, route oral; settings: in vivo
[10] = AUC in guinea pig at 20 mg/kg, po; format: ADME, organism-based, Cavia porcellus; settings: in vivo
[11] = Tmax in guinea pig at 20 mg/kg, po; format: ADME, organism-based, Cavia porcellus; settings: in vivo
[12] = Oral bioavailability in guinea pig at 20 mg/kg; format: ADME, organism-based, Cavia porcellus; settings: in vivo
[13] = Total clearance in rat at 0.5 mg/kg, iv; format: ADME, organism-based; settings: in vivo
[14] = Half life in rat at 0.5 mg/kg, iv; format: ADME, organism-based; settings: in vivo
[15] = Volume of distribution at steady state in rat at 0.5 mg/kg, iv; format: ADME, organism-based; settings: in vivo, read-out: Vdss
[16] = Cmax in rat at 1 mg/kg, po; format: ADME, organism-based; parameters: dose 1 mg/kg, route oral; settings: in vivo
[17] = AUC in rat at 1 mg/kg, po; format: ADME, organism-based; settings: in vivo
[18] = Tmax in rat at 1 mg/kg, po; format: ADME, organism-based; settings: in vivo
[19] = Oral bioavailability in rat at 1 mg/kg; format: ADME, organism-based; settings: in vivo
[20] = tested on: Cavia porcellus; experiment: Analgesic activity in Dunkin-Hartley guinea pig complete Freund's adjuvant-induced mechanical hyperalgesia model assessed as reversal in paw withdrawal threshold at 1 mg/kg, po after 5 hrs relative to control; format: functional
[21] = tested on: Cavia porcellus; experiment: Analgesic activity in Dunkin-Hartley guinea pig complete Freund's adjuvant-induced mechanical hyperalgesia model assessed as reversal in paw withdrawal threshold at 3 mg/kg, po after 5 hrs relative to control; format: functional
[22] = tested on: Cavia porcellus; experiment: Analgesic activity in Dunkin-Hartley guinea pig complete Freund's adjuvant-induced mechanical hyperalgesia model assessed as reversal in paw withdrawal threshold at 10 mg/kg, po after 5 hrs relative to control; format: functional
[23] = Plasma concentration in Dunkin-Hartley guinea pig complete Freund's adjuvant-induced mechanical hyperalgesia model at 1 mg/kg, po after 5 hrs; format: ADME, organism-based, Cavia porcellus
[24] = Plasma concentration in Dunkin-Hartley guinea pig complete Freund's adjuvant-induced mechanical hyperalgesia model at 3 mg/kg, po after 5 hrs; format: ADME, organism-based, Cavia porcellus
[25] = Plasma concentration in Dunkin-Hartley guinea pig complete Freund's adjuvant-induced mechanical hyperalgesia model at 10 mg/kg, po after 5 hrs; format: ADME, organism-based, Cavia porcellus
[26] = Protein binding in guinea pig; format: ADME, Cavia porcellus; settings: read-out: PB (converted)
[27] = tested on: Rattus norvegicus; experiment: Analgesic activity in rat assessed as reversal of complete Freund's adjuvant-induced mechanical hyperalgesia at 30 mg/kg, po after 1 hr relative to control; format: functional
[28] = tested on: Rattus norvegicus; experiment: Analgesic activity in rat assessed as reversal of complete Freund's adjuvant-induced mechanical hyperalgesia at 10 mg/kg, po after 3 hrs relative to control; format: functional
[29] = tested on: Rattus norvegicus; experiment: Analgesic activity in rat assessed as reversal of complete Freund's adjuvant-induced mechanical hyperalgesia at 30 mg/kg, po after 3 hrs relative to control; format: functional
[30] = tested on: Rattus norvegicus; experiment: Analgesic activity in rat assessed as reversal of complete Freund's adjuvant-induced mechanical hyperalgesia at 10 mg/kg, po after 5 hrs relative to control; format: functional
[31] = tested on: Rattus norvegicus; experiment: Analgesic activity in rat assessed as reversal of complete Freund's adjuvant-induced mechanical hyperalgesia at 30 mg/kg, po after 5 hrs relative to control; format: functional
[32] = Antagonist activity at guinea pig TRPV4 assessed as inhibition of hypotonicity-induced activation; parameters: species or system Cavia porcellus
[33] = target: T1, Transient receptor potential cation channel subfamily V member 4; experiment: Antagonist activity at rat TRPV4 assessed as inhibition of hypotonicity-induced activation
[34] = Metabolic stability in human hepatocytes assessed as parent compound remaining after 1 hr; format: ADME, cell-based, Hepatocyte; settings: read-out: Stability
[35] = Metabolic stability in guinea pig hepatocytes assessed as parent compound remaining after 1 hr; format: ADME, cell-based, Cavia porcellus, Hepatocyte; settings: read-out: Stability
[36] = Metabolic stability in rat hepatocytes assessed as parent compound remaining after 1 hr; format: ADME, cell-based, Hepatocyte; settings: read-out: Stability
[37] = target: T2, Cytochrome P450 1A2 (Homo sapiens, UniProt P05177); experiment: Inhibition of CYP1A2 (unknown origin); format: ADME
T2 sequence (P05177 whole entry): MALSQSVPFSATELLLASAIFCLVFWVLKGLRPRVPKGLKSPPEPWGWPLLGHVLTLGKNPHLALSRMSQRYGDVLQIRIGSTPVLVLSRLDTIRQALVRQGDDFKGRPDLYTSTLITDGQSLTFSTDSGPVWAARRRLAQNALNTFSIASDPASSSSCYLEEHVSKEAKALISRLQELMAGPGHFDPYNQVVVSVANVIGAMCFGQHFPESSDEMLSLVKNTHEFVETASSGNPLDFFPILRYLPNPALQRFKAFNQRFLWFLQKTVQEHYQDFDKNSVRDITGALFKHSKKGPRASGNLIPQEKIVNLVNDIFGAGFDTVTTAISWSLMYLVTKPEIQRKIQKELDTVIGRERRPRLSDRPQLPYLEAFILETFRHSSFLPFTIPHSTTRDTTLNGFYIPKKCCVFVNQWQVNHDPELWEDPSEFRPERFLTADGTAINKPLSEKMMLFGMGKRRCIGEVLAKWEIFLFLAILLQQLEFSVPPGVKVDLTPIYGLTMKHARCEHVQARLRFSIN

[38] = target: Cytochrome P450 2C19 (Homo sapiens, UniProt P33261); experiment: Inhibition of CYP2C19 (unknown origin); format: ADME
[39] = target: Cytochrome P450 2C9 (Homo sapiens, UniProt P11712); experiment: Inhibition of CYP2C9 (unknown origin); format: ADME
[40] = target: Cytochrome P450 2D6 (Homo sapiens, UniProt P10635); experiment: Inhibition of CYP2D6 (unknown origin); format: ADME
[41] = target: Cytochrome P450 3A4 (Homo sapiens, UniProt P08684); experiment: Inhibition of CYP3A4 (unknown origin); format: ADME
[42] = Protein binding in human; format: ADME; settings: read-out: PB
[43] = Protein binding in rat; format: ADME; settings: read-out: PB
[44] = tested on: Salmonella typhimurium; experiment: Genotoxicity in Salmonella typhimurium by Ames test; format: toxicity, organism-based; settings: salmonella enterica subsp. enterica serovar typhimurium

T1 sequence (Q9ERZ8 whole entry): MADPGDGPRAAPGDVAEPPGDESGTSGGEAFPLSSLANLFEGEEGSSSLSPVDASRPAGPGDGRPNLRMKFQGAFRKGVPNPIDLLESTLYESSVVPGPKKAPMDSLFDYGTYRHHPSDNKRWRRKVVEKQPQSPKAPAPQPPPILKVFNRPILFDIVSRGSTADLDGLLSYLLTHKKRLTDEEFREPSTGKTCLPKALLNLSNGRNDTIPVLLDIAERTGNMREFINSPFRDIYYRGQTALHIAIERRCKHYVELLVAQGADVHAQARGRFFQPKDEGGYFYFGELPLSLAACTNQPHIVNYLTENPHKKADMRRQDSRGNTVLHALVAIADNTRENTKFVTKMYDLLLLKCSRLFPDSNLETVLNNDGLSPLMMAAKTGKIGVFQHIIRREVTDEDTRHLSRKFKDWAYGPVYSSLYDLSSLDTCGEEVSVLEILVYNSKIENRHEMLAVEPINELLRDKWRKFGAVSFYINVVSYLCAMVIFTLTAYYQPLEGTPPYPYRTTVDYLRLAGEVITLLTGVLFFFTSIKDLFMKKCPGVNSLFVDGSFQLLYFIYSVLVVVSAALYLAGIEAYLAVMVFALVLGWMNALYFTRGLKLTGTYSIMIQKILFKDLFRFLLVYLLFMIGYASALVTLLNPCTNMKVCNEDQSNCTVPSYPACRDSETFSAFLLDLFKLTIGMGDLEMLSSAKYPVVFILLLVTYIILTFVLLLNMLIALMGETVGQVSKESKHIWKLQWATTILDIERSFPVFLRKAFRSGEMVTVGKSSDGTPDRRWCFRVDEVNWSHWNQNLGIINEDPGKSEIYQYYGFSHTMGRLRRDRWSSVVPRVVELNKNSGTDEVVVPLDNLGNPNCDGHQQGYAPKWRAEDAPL
Cytochrome P450 2C19, sequence (P33261 whole entry): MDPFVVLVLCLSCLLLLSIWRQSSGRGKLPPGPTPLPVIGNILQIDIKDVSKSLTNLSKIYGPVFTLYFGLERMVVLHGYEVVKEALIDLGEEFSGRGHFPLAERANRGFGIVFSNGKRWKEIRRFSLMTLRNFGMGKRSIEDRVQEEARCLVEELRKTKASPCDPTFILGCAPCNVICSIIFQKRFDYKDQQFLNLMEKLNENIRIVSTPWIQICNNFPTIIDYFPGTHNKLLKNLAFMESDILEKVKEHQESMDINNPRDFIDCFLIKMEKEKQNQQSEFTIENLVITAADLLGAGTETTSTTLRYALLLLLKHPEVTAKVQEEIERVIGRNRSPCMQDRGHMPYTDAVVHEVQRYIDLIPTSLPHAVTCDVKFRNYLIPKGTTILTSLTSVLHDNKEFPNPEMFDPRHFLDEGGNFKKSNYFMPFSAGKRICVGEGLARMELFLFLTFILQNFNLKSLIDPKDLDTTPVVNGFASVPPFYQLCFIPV
Cytochrome P450 2D6, sequence (P10635 whole entry): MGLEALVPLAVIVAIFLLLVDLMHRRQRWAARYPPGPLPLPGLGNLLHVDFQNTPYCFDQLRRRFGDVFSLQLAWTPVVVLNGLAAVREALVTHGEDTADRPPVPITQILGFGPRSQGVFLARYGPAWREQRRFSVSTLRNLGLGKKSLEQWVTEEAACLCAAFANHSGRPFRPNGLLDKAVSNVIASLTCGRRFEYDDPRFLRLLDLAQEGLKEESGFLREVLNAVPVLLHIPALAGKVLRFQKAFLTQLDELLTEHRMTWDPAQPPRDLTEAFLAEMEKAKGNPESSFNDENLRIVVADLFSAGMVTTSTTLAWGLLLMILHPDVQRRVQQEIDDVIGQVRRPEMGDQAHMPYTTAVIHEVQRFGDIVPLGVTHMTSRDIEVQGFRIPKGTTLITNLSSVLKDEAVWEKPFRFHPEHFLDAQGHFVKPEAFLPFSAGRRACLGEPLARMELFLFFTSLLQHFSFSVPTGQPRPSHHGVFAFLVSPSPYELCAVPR
Cytochrome P450 2C9, sequence (P11712 whole entry): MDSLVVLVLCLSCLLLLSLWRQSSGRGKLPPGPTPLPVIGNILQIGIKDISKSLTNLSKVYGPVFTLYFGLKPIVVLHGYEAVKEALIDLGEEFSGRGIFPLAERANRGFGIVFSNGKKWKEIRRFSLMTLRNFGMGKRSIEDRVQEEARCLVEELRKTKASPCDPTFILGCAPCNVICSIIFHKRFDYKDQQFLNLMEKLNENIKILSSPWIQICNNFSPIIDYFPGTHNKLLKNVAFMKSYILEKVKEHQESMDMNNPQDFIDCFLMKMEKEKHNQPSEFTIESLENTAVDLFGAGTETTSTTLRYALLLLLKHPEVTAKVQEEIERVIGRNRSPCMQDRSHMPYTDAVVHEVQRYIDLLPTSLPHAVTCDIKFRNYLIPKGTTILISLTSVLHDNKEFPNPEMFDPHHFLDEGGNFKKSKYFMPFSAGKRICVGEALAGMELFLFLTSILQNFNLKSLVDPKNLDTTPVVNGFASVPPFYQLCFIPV
Cytochrome P450 3A4, sequence (P08684 whole entry): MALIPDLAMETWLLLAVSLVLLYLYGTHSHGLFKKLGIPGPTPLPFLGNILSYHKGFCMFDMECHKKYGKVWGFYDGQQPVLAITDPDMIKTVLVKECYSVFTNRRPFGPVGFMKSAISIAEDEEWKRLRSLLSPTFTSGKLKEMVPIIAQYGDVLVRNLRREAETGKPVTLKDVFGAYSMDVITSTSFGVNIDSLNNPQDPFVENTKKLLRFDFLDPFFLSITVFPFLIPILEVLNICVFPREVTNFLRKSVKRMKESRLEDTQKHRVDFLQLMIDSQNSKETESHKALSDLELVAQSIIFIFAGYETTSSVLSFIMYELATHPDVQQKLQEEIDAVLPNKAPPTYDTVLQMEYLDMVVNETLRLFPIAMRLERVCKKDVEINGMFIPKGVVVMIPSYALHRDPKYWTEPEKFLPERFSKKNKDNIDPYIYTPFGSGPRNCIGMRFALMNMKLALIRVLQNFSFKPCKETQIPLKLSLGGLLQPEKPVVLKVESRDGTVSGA

IC50 [2]: 0.9 nM
IC50 [3]: 8.6 nM
remaining at 0.5 h [4]: 94.8%
remaining at 0.5 h [5]: 69.2%
clearance [6]: 31.1 mL/min/kg
half-life [7]: 4.2 h
Vd [8]: 11 L/kg
Cmax [9]: 256 ng/mL
AUC [10]: 4720 ng·h/mL
Tmax [11]: 12 h
bioavailability [12]: 44%
clearance [13]: 7.22 mL/min/kg
half-life [14]: 8.1 h
Vd [15]: 4.6 L/kg
Cmax [16]: 55.2 ng/mL
AUC [17]: 900 ng·h/mL
Tmax [18]: 4 h
bioavailability [19]: 37.9%
concentration at 5 h [23]: 21.2 ng/mL
concentration at 5 h [24]: 69.4 ng/mL
concentration at 5 h [25]: 209 ng/mL
fraction unbound [26]: 0.003
IC50 [32]: 1.2 nM
IC50 [33]: 2.1 nM
remaining at 1 h [34]: 91%
remaining at 1 h [35]: 73%
remaining at 1 h [36]: 105%
INH [37]: > 20 µM
INH [38]: > 20 µM
INH [39]: > 20 µM
INH [40]: > 20 µM
INH [41]: > 20 µM
fraction unbound [42]: < 0.001
fraction unbound [43]: < 0.001
Compound: Cc1nc(C)c(-c2csc(Nc3ccc(C(=O)N4C5CCC4CN(c4ncc(C(F)(F)F)cn4)C5)cn3)n2)s1
Activity [1]: 15.5%
Activity [20]: 15.6%
Activity [21]: 30.6%
Activity [22]: 43.4%
Activity [27]: 22%
Activity [28]: 21.3%
Activity [29]: 29.7%
Activity [30]: 11%
Activity [31]: 23.5%
Activity [44]: Non-Toxic
